Each molecule was assayed against KDR kinase (Homo sapiens, UniProt P35968) (assay: KDR kinase inhibition assay (LanthaScreen TR-FRET)). Details: TR-FRET assay.
Type: biochemical
Experimental: KDR Kinase Inhibition Assay
LanthaScreen™ is the detection of Time-Resolved Fluorescence Resonance Energy Transfer (TR-FRET) using lanthanide chelates to measure interactions between various binding partners. The application of TR-FRET to assay kinase activity was first described by Mathis (1995). A TR-FRET assay was used to measure KDR kinase inhibitory activity. The assay panel was run on a Biomek FX liquid handling workstations. To the assay plates containing 50 nL compound or control solutions, 4.5 μL of buffer A (50 mM TRIS-HCl pH 7.4, 2 mM DTT, 0.02% Tween 20, 0.02 mM Na3VO4, H2O nanpure) including a generic concentration of ATP (2 μM f.c.) was added per well, followed by 4.5 μL of buffer B (4 uM ATP in Buffer A) including a generic concentration of polyEAY (50 nM f.c.), KDR kinase, and divalent cations. Final concentration of kinase and cations were: [KDR kinase]=0.38 nM, [Mg]=10 mM, [Ca]=1 mM. After 1 hour of incubation the kinase reactions were stopped by the addition of 4.5 μL of stop solution D (50 mM EDTA, 20 mM TRIS-HCl pH 7.4, 0.04% NP-40) immediately followed by 4.5 μL of buffer A (50 mM TRIS-HCl pH 7.4, 2 mM DTT, 0.02% Tween 20, 0.02 mM Na3VO4, H2O nanpure) including the Tb-labeled P-20 antibody to give a total detection volume of 18 μL. After an incubation time of 45 min in the dark, the plates were transferred into the Pherastar fluorescence reader for counting. The effect of compound on the enzymatic activity was obtained from the linear progress curves and determined from one reading (end point measurement).

KDR kinase, sequence (P35968 20-1356): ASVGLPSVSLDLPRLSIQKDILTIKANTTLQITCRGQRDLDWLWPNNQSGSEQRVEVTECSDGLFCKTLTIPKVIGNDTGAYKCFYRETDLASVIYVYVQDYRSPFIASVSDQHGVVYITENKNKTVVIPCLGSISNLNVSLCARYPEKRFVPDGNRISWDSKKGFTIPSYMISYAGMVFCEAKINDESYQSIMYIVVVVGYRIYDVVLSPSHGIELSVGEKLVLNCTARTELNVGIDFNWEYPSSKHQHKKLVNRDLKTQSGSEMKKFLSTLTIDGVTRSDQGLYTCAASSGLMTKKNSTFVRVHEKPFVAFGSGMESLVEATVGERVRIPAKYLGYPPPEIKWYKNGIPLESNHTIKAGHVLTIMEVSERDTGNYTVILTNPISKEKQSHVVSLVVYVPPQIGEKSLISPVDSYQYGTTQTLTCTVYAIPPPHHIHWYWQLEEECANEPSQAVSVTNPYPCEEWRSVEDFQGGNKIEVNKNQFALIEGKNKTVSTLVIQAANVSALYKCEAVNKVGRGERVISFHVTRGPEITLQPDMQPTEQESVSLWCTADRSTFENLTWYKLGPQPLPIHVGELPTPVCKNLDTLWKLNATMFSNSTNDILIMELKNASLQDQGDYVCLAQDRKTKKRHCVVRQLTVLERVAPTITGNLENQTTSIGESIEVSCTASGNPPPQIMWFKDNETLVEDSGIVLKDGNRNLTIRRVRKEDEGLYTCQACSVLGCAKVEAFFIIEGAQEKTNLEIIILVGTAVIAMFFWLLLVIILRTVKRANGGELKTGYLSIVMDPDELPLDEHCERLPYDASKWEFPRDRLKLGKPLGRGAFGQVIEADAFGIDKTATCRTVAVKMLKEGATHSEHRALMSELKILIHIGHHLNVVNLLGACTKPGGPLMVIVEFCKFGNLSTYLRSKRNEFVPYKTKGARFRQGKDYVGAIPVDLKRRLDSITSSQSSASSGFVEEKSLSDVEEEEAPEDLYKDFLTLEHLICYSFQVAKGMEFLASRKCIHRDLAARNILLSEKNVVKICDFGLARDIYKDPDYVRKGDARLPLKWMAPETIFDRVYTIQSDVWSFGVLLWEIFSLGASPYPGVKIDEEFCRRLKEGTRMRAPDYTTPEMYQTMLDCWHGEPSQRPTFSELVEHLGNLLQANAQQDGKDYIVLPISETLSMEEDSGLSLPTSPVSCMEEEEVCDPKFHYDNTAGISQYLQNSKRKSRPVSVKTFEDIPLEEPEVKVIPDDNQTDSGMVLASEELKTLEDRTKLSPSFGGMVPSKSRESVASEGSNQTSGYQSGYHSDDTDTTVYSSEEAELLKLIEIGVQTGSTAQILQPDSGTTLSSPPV

| Structure (SMILES) | IC50 [nM] |
| --- | --- |
| Nc1ncc(-c2ccccc2)nc1C(=O)Nc1cnccc1[C@H]1C[C@@H](N)[C@@]2(O)CCC[C@H]2O1 [Example 183, 3-amino-N-(4-((2R,4R,4aS,7aR)-4-amino-4a-hydroxyoctahydrocyclopenta[b]pyran-2-yl)pyridin-3-yl)-6-phenylpyrazine-2-carboxamide] | 6.8 |
| Nc1ncc(-c2ccccc2)nc1C(=O)Nc1cnccc1[C@@H]1C[C@H](N)[C@]2(O)CCC[C@@H]2O1 [Example 185, 3-amino-N-(4-((2S,4S,4aR,7aS)-4-amino-4a-hydroxyoctahydrocyclopenta[b]pyran-2-yl)pyridin-3-yl)-6-phenylpyrazine-2-carboxamide] | 2000 |
| CC[C@]1(O)[C@H](N)C[C@H](c2ccncc2NC(=O)c2nc(-c3ccccc3)cnc2N)O[C@@H]1C [Example 187, 3-amino-N-(4-((2R,4R,5S,6R)-4-amino-5-ethyl-5-hydroxy-6-methyltetrahydro-2H-pyran-2-yl)pyridin-3-yl)-6-phenylpyrazine-2-carboxamide] | 42 |
| CC[C@]1(O)[C@H](C)O[C@H](c2ccncc2NC(=O)c2nc(-c3ccccc3)cnc2N)C[C@@H]1N [Example 189, 3-amino-N-(4-((2S,4S,5R,6S)-4-amino-5-ethyl-5-hydroxy-6-methyltetrahydro-2H-pyran-2-yl)pyridin-3-yl)-6-phenylpyrazine-2-carboxamide] | 1400 |
| Nc1ncc(-c2ccccc2)nc1C(=O)Nc1cnccc1[C@H]1C[C@@H](N)[C@@]2(O)CCCC[C@H]2O1 [Example 197, 3-amino-N-(4-((2R,4R,4aS,8aR)-4-amino-4a-hydroxyoctahydro-2H-chromen-2-yl)pyridin-3-yl)-6-phenylpyrazine-2-carboxamide] | 40 |
| CC(C)(C)[C@@H]1O[C@H](c2ccncc2NC(=O)c2nc(-c3ccccc3)cnc2N)C[C@@H](N)[C@H]1O [Example 227, 3-amino-N-(4-((2S,4R,5R,6S)-4-amino-6-tert-butyl-5-hydroxytetrahydro-2H-pyran-2-yl)pyridin-3-yl)-6-phenylpyrazine-2-carboxamide] | 1700 |
| C[C@H]1O[C@@H](c2ccncc2NC(=O)c2nc(-c3ccccc3)cnc2N)C[C@@H](N)[C@]1(C)O [Example 228, 3-amino-N-(4-((2R,4R,5S,6R)-4-amino-5-hydroxy-5,6-dimethyltetrahydro-2H-pyran-2-yl)pyridin-3-yl)-6-phenylpyrazine-2-carboxamide] | 38 |
| C[C@@H]1O[C@H](c2ccncc2NC(=O)c2nc(-c3ccccc3)cnc2N)C[C@H](N)[C@@]1(C)O [Example 229, 3-amino-N-(4-((2S,4S,5R,6S)-4-amino-5-hydroxy-5,6-dimethyltetrahydro-2H-pyran-2-yl)pyridin-3-yl)-6-phenylpyrazine-2-carboxamide] | 790 |
| CC(C)[C@@H]1O[C@H](c2ccncc2NC(=O)c2nc(-c3ccccc3)cnc2N)C[C@H](N)[C@H]1O [Example 240, 3-amino-N-(4-((2S,4S,5R,6S)-4-amino-5-hydroxy-6-isopropyltetrahydro-2H-pyran-2-yl)pyridin-3-yl)-6-phenylpyrazine-2-carboxamide] | 5100 |
| Nc1ncc(-c2ccccc2)nc1C(=O)Nc1cnccc1[C@@H]1C[C@H](N)[C@]2(O)CCCC[C@@H]2O1 [Example 243, 3-amino-N-(4-((2S,4S,4aR,8aS)-4-amino-4a-hydroxyoctahydro-2H-chromen-2-yl)pyridin-3-yl)-6-phenylpyrazine-2-carboxamide] | 8400 |
| CC(C)(C)[C@H]1O[C@@H](c2ccncc2NC(=O)c2nc(-c3ccccc3)cnc2N)C[C@H](N)[C@@H]1O [Example 286, 3-amino-N-(4-((2R,4S,5S,6R)-4-amino-6-tert-butyl-5-hydroxytetrahydro-2H-pyran-2-yl)pyridin-3-yl)-6-phenylpyrazine-2-carboxamide] | 180 |
| CC(C)[C@@H]1C[C@H](N)C[C@H](c2ccncc2NC(=O)c2nc(-c3ccccc3)cnc2N)O1 [Example 291, 3-amino-N-(4-((2R,4S,6S)-4-amino-6-isopropyltetrahydro-2H-pyran-2-yl)pyridin-3-yl)-6-phenylpyrazine-2-carboxamide] | 340 |
| CC(C)[C@H]1C[C@@H](N)C[C@@H](c2ccncc2NC(=O)c2nc(-c3ccccc3)cnc2N)O1 [Example 292, 3-amino-N-(4-((2S,4R,6R)-4-amino-6-isopropyltetrahydro-2H-pyran-2-yl)pyridin-3-yl)-6-phenylpyrazine-2-carboxamide] | 4300 |
| CCC[C@H]1O[C@@H](c2ccncc2NC(=O)c2nc(-c3ccccc3)cnc2N)C[C@@H](O)[C@@H]1O [Example 340, 3-amino-N-(4-((2R,4R,5S,6R)-4,5-dihydroxy-6-propyltetrahydro-2H-pyran-2-yl)pyridin-3-yl)-6-phenylpyrazine-2-carboxamide] | 130 |
| Nc1ncc(-c2ccccc2)nc1C(=O)Nc1cnccc1[C@H]1C[C@@H](O)[C@H](O)[C@@H](CO)O1 [Example 341, 3-amino-N-(4-((2R,4R,5S,6R)-4,5-dihydroxy-6-(hydroxymethyl)tetrahydro-2H-pyran-2-yl)pyridin-3-yl)-6-phenylpyrazine-2-carboxamide] | 60 |
| CC[C@@H]1O[C@H](c2ccncc2NC(=O)c2nc(-c3ccccc3)cnc2N)C[C@H](N)[C@@]1(C)O [Example 345, 3-amino-N-(4-((2S,4S,5R,6S)-4-amino-6-ethyl-5-hydroxy-5-methyltetrahydro-2H-pyran-2-yl)pyridin-3-yl)-6-phenylpyrazine-2-carboxamide] | 4400 |
| CC[C@H]1O[C@@H](c2ccncc2NC(=O)c2nc(-c3ccccc3)cnc2N)C[C@@H](N)[C@]1(C)O [Example 348, 3-amino-N-(4-((2R,4R,5S,6R)-4-amino-6-ethyl-5-hydroxy-5-methyltetrahydro-2H-pyran-2-yl)pyridin-3-yl)-6-phenylpyrazine-2-carboxamide] | 150 |
| C[C@@]1(O)[C@@H](N)C[C@@H](c2ccncc2NC(=O)c2nc(-c3ccccc3)cnc2N)OC12CC2 [Example 350, 3-amino-N-(4-((5S,7S,8R)-7-amino-8-hydroxy-8-methyl-4-oxaspiro[2.5]octan-5-yl)pyridin-3-yl)-6-phenylpyrazine-2-carboxamide] | 220 |

Further lines, results first:

| IC50 [nM] | Structure (SMILES) |
| --- | --- |
| 62 | Nc1ncc(-c2ccccc2)nc1C(=O)Nc1cnccc1[C@H]1C[C@@H](N)[C@H]2CCC[C@H]2O1 [Example 199, 3-amino-N-(4-((2R,4R,4aR,7aR)-4-aminooctahydrocyclopenta[b]pyran-2-yl)pyridin-3-yl)-6-phenylpyrazine-2-carboxamide] |
| 3000 | Nc1ncc(-c2ccccc2)nc1C(=O)Nc1cnccc1[C@@H]1C[C@H](N)[C@@H]2CCC[C@@H]2O1 [Example 233, 3-amino-N-(4-((2S,4S,4aS,7aS)-4-aminooctahydrocyclopenta[b]pyran-2-yl)pyridin-3-yl)-6-phenylpyrazine-2-carboxamide] |
| 510 | CC[C@@H]1O[C@H](c2ccncc2NC(=O)c2nc(-c3ccccc3)cnc2N)C[C@H](N)[C@H]1O [Example 342, 3-amino-N-(4-((2S,4S,5R,6S)-4-amino-6-ethyl-5-hydroxytetrahydro-2H-pyran-2-yl)pyridin-3-yl)-6-phenylpyrazine-2-carboxamide] |
| 13 | CC[C@H]1O[C@@H](c2ccncc2NC(=O)c2nc(-c3ccccc3)cnc2N)C[C@@H](N)[C@@H]1O [Example 343, 3-amino-N-(4-((2R,4R,5S,6R)-4-amino-6-ethyl-5-hydroxytetrahydro-2H-pyran-2-yl)pyridin-3-yl)-6-phenylpyrazine-2-carboxamide] |
| 58 | C[C@]1(O)[C@H](N)C[C@H](c2ccncc2NC(=O)c2nc(-c3ccccc3)cnc2N)O[C@@H]1C1CC1 [Example 344, 3-amino-N-(4-((2R,4R,5S,6R)-4-amino-6-cyclopropyl-5-hydroxy-5-methyltetrahydro-2H-pyran-2-yl)pyridin-3-yl)-6-phenylpyrazine-2-carboxamide] |
| 28 | Nc1ncc(-c2ccccc2)nc1C(=O)Nc1cnccc1[C@H]1C[C@@H](N)[C@H](O)[C@@H](C2CC2)O1 [Example 346, 3-amino-N-(4-((2R,4R,5S,6R)-4-amino-6-cyclopropyl-5-hydroxytetrahydro-2H-pyran-2-yl)pyridin-3-yl)-6-phenylpyrazine-2-carboxamide] |
| 3700 | C[C@@]1(O)[C@@H](N)C[C@@H](c2ccncc2NC(=O)c2nc(-c3ccccc3)cnc2N)O[C@H]1C1CC1 [Example 347, 3-amino-N-(4-((2S,4S,5R,6S)-4-amino-6-cyclopropyl-5-hydroxy-5-methyltetrahydro-2H-pyran-2-yl)pyridin-3-yl)-6-phenylpyrazine-2-carboxamide] |
| 2300 | Nc1ncc(-c2ccccc2)nc1C(=O)Nc1cnccc1[C@@H]1C[C@H](N)[C@@H](O)[C@H](C2CC2)O1 [Example 349, 3-amino-N-(4-((2S,4S,5R,6S)-4-amino-6-cyclopropyl-5-hydroxytetrahydro-2H-pyran-2-yl)pyridin-3-yl)-6-phenylpyrazine-2-carboxamide] |
